For experiment [1], the system named is Mitochondrial potential in cultured wild-type 3T3-L1 adipocytes. The experiment is described as follows: Mitochondrial membrane potential (JC-1). It is filed as cell-based, murine. The conditions noted are these: H2O2 100 nmol/L, 48 hours. On the procedure: (§1) 3T3-L1 preadipocytes were incubated at a density of 8000 cells/cm^2 (10 cm^2 dish) and grown in Dulbecco's modified Eagle's medium (DMEM) containing 10% FBS and antibiotics (adipocyte medium) at 37° C. in 5% CO2 in air. Confluent preadipocytes were induced to differentiate with a standard differentiation medium consisting of DMEM-F 10 (1:1, vol/vol) medium supplemented with 1% FBS, 1 μM dexamethasone, IBMX (0.5 mM) and antibiotics (1% Penicillin-Streptomycin). Preadipocytes were maintained in this differentiation medium for 3 days and subsequently cultured in adipocyte medium. Cultures were re-fed every 2-3 days to allow 90% of cells to reach full differentiation before conducting chemical treatment. Chemicals were freshly diluted in adipocyte medium before treatment. […] Cell viability was measured via trypan blue exclusion.
Mitochondrial membrane potential was analyzed fluorometrically with a lipophilic cationic dye JC-1 (5,5′,6,6′-tetrachloro-1,1′,3,3′-tetraethylbenzimidazol carbocyanine iodide) using a mitochondrial potential detection kit (Biocarta, San Diego, Calif.). Mitochondrial potential was determined as the ratio of red fluorescence (excitation 550 nm, emission 600 mn) and green fluorescence (excitation 485 nm, emission 535 nm) using a fluorescence microplate reader.

Another experiment deals with IL-6. The experiment is described as follows: IL-6 expression in RAW 264 macrophages. It is filed as cell-based. On the procedure: RAW 264 macrophages and 3T3-L1 preadipocytes (American Type Culture Collection) were incubated at a density of 8000 cells/cm2 (10 cm2 dish) and grown in Dulbecco's modified Eagle's medium (DMEM) containing 10% FBS and antibiotics (adipocyte medium) at 37° C. in 5% CO2 in air. Confluent 3T3-L1 preadipocytes were induced to differentiate with a standard differentiation medium consisting of DMEM-F10 (1:1, vol/vol) medium supplemented with 1% FBS, 1 μM dexamethasone, IBMX (0.5 mM) and antibiotics (1% Penicillin-Streptomycin). Preadipocytes were maintained in this differentiation medium for 3 days and subsequently cultured in adipocyte medium. Cultures were re-fed every 2-3 days to allow 90% cells to reach fully differentiation for 3T3-L1 adipocytes or grow to a confluence for RAW 264 before conducting chemical treatment.
Human adipocytes (Zen-Bio, Inc.), 3T3-L1 adipocytes, RAW264 macrophages were obtained and co-cultured by using transwell inserts with 0.4 μm porous membranes (Corning) to separate adipocytes and macrophages. All data are expressed as mean±SEM. Data were evaluated for statistical significance by analysis of one-way or two-way variance (ANOVA; means with different letter differ, p<0.05).
Adipocyte and muscle 18s, CD14, TNFα, MIP, M-CSF, IL-6 and MCP-1 were quantitatively measured using a Smart Cycler Real Time PCR System (Cepheid, Sunnyvale, Calif.) with a TaqMan 1000 Core Reagent Kit (Applied Biosystems, Branchburg, N.J.). The primers and probe sets were obtained from Applied Biosystems TaqMan® Assays-on-Demand™ Gene Expression primers and probe set collection according to manufacture's instruction. […] Reactions of quantitative RT-PCR for standards and unknown samples were also performed according to the instructions of Smart Cycler System (Cepheid, Sunnyvale, Calif.) and TaqMan Real Time PCR Core Kit (Applied Biosystems, Branchburg, N.J.). The mRNA quantitation for each sample was further normalized using the corresponding 18s quantitation.

For the next experiment, the system named is NADPH oxidase. The experiment is described as follows: NADPH oxidase expression in 3T3-L1 adipocytes. It is filed as cell-based, murine. The conditions noted are these: added to glucose 30 mmol/L, 48 hours; nifedipine 10 μmol/L. On the procedure: as §1, with “exclusion. Adipocyte 18s, cyclin A, NADPH oxidase, and UCP2 were quantitatively measured using a Smart Cycler Real Time PCR System (Cepheid, Sunnyvale, Calif.) with a TaqMan 1000 Core Reagent Kit (Applied Biosystems, Branchburg, N.J.). […] Reactions of quantitative RT-PCR for standards and unknown samples were also performed according to the instructions of Smart Cycler System (Cepheid, Sunnyvale, Calif.) and TaqMan Real Time PCR Core Kit (Applied Biosystems, Branchburg, N.J.). The mRNA quantitation for each sample was further normalized using the corresponding 18s quantitation.” for “exclusion.”

Take `OO` [H2O2, hydrogen peroxide]: the “increase of mitochondrial potential” value in experiment [1] is recorded as 72%.
As to `C=C1/C(=C\C=C2/CCC[C@]3(C)[C@@H]([C@H](C)CCCC(C)(C)O)CC[C@@H]23)C[C@@H](O)C[C@@H]1O` [calcitriol, 1, 25-Dihydroxyvitamin D], the “effect on IL-6 expression in macrophages in co-culture” value with IL-6 (co-culture with differentiated 3T3-L1 adipocytes) is recorded as “further enhanced”. Also, the “stimulation of IL-6 expression” value in the experiment on IL-6 (macrophages cultured alone, calcitriol 10 nmol/L, 48 hours) was determined as 796%. Moreover, the “effect on NADPH oxidase expression” value in the experiment with NADPH oxidase is “stimulated”.

The record behind these values is patent publication US20070092577A1, “Dietary calcium for reducing the production of reactive oxygen species” (University of Tennessee Research Foundation, priority 2005, published 2007).
